# US20090104335A1, “Healthy Food Product” (priority 2006, published 2009)
# Experiment: Effect of peptides on incorporation of cholesterol (NBD-cholesterol) into mixed micelles
# Conditions: peptides 1 mg/ml, BA-mix in PBS pH 6.5, micelles without peptide = 100%
# Procedure: To form mixed micelles in vitro, 0.1 mM lecithin, 0.05 mM monoolein, 0.1 mM oleic acid and 80 μM cholesterol are mixed in a test tube and dried under a stream of N2. After drying, a 2 mM bile acid mix (BA-mix) in PBS pH 6.5 is added to this lipid mixture. Fluorescent labelled cholesterol (NBD-cholesterol) is used to monitor the incorporation of cholesterol into the mixed micelles.
# For testing, peptides (1 mg/ml) are added to the BA-mix and then mixed with lipid-mixtures as described. The whole mixture is vortexed for 15 seconds, followed by an ultrasonic treatment in a waterbath for 30 minutes. From this mixture a sample is taken to measure total NBD-cholesterol concentration. The remaining micelle solution is centrifuged in a table-top ultracentrifuge at 50.000 g for 30 minutes at room temperature.
# After centrifugation, samples from the supernatant are taken for the determination of solubilized NBD-cholesterol, which indicates the amount of cholesterol incorporated into mixed micelles. The pellet containing crystallised cholesterol is discarded. NBD-cholesterol is measured at 375/465 nm using a fluorescence plate reader.
# Mixed micelle mixtures containing no peptides are used as control (100%). For each example the percentage of incorporated Cholesterol is calculated by dividing the amount of incorporated cholesterol for the tested composition by the amount of incorporated cholesterol in the control sample.
Substance,"Incorporated CH (% control = 80 μM cholesterol) (Table 3, effect of charge) [% control]","Incorporated CH (% control = 80 μM cholesterol) (Table 4, effect of length) [% control]"
VEWEME [reference compound],68.4,–
RARWRY,19.3,–
"RRRRRRRR [octa-peptide RRRRRRRR, net charge +8]",–,8.8
RRRR,–,32.8
RRRRRR,14.8,10.3
EAEWEY [reference compound],81.3,–
VRWRMR,26.2,–
KKKKKK,19.9,–
DDDDDD [reference compound],136.8,–
